Measurements as given in patent US20110038867A1, “REMEDIES FOR PEMPHIGUS CONTAINING ANTI FAS LIGAND ANTIBODIES” (priority 2007, published 2011).
Peptide text beside a SMILES is read from it. * marks the point of attachment. Cbz = O=C(OCc1ccccc1)*; CH2F = FC*

Experiments:
[1] = tested on: human keratinocytes; experiment: Pemphigus sera-induced keratinocyte apoptosis, TUNEL staining; type: cell-based; settings: sera pretreated with anti-FasL neutralizing antibody (2.5 mg per ml for 30 min) or Z-IETD-FMK (100 μM for 30 min); FIG. 6
Experimental: As apoptotic keratinocytes are abundantly expressed in pemphigus, we wanted to explore whether pemphigus sera are capable of inducing apoptosis in normal human keratinocytes. To this purpose, keratinocytes were plated in chamber slides and cultured in serum-free medium (KGM) up to preconfluence. Cells were then cultured in keratinocyte basal medium and treated for 48 h with the addition of 25% serum from either untreated patients or patients treated with systemic corticosteroids. Sera from healthy subjects were used as controls. Apoptosis was evaluated by TUNEL staining in situ. Approximately 100 cells were evaluated, in randomly selected fields, and the percentage of TUNEL-positive cells was counted.
FasL is one of the major triggers of the caspase-8 activated extrinsic apoptotic pathway. Therefore, we wanted to evaluate whether this pathway plays a role in pemphigus apoptosis. To this purpose, patient sera were pretreated with anti-FasL neutralizing antibody or caspase-8 inhibitor, and added to keratinocyte cultures. Keratinocytes were cultured in KGM and treated with pemphigus sera or with sera from untreated patients. Sera were pretreated with anti-FasL neutralizing antibody (2.5 mg per ml for 30 min) or caspase-8 inhibitor Z-IETD-FMK (100 μM for 30 min). Apoptosis was evaluated by TUNEL staining.

[2] = tested on: keratinocytes; experiment: Pemphigus sera-induced Dsg3 cleavage and caspase-8 activation in confluent keratinocytes, Western blotting; type: cell-based, human; settings: pretreatment with Z-IETD-FMK (100 μM for 30 min) or NOK2 15 μg/ml, then sera 72 hrs; FIG. 12A
Experimental: To investigate whether the extrinsic apoptotic pathway is responsible for dsg cleavage, we pretreated confluent keratinocytes with caspase-8 inhibitor Z-IETD-FMK (100 μM for 30 min) or with anti-FasL (NOK2, 15 μg/ml) Ab. Then cells were incubated for 72 hrs with healthy or untreated pemphigus sera. Protein extracts from the culture were analyzed by Western blotting using anti-Dsg3 antibodies and anti-caspase-8 Ab. Vinculin was used as internal control. (FIG. 12A).

[3] = tested on: keratinocytes; experiment: Pemphigus sera-induced cell detachment (acantholysis) of confluent keratinocytes; type: cell-based, human; settings: pretreatment with Z-IETD-FMK (100 μM for 30 min) or NOK2 15 μg/ml, then sera 72 hrs; FIG. 12B
[4] = tested on: keratinocytes; experiment: Treatment of keratinocytes with increasing amounts of FasL, Western blotting with anti-Dsg1 and anti-Dsg3; type: cell-based, human; settings: FasL 0.1, 10, 100 ng/ml for 72 hrs; FIG. 9
Experimental: Protein extracts from the culture were analyzed by Western blotting using anti-Dsg1 and anti-Dsg3 antibodies. β-actin was used as internal control. These doses are consistent with the ones detected in pemphigus sera (FIG. 9).

Molecule | pemphigus sera-induced keratinocyte apoptosis (TUNEL staining) [1] | caspase-8 activation by untreated pemphigus sera [2] | dsg cleavage by untreated pemphigus sera [2] | cell detachment (i.e. acantholysis) by untreated pemphigus sera [3] | cleavage of dsgs (Dsg1, Dsg3) by FasL [4]
CC[C@H](C)[C@H](NC(=O)OCc1ccccc1)C(=O)N[C@@H](CCC(=O)OC)C(=O)N[C@H](C(=O)N[C@@H](CC(=O)OC)C(=O)CF)[C@@H](C)O [Z-IETD-FMK] (Cbz-IE(OMe)TD(OMe)-CH2F) | partially prevented | prevents both caspase-8 activation and dsg cleavage | prevents both caspase-8 activation and dsg cleavage | prevented | –
FasL: recombinant Fas ligand added to keratinocyte cultures (protein, UniProt P48023 130-281, looked up) Tumor necrosis factor ligand …: QIGHPSPPPEKKELRKVAHLTGKSNSRSMPLEWEDTYGIVLLSGVKYKKGGLVINETGLYFVYSKVYFRGQSCNNLPLSHKVYMRNSKYPQDLVMMEGKMMSYCTTGQMWARSSYLGAVFNLTSADHLYVNVSELSLVNFEESQTFFGLYKL | – | – | – | – | cleaved dsgs in a dose-dependent manner
